Here are results for one molecule from US20030232862A1 (priority 2002, published 2003).

Series [1] in a line: Clinical tolerability of exisulind. In kind it is in vivo. The source says: This effect is reversible, and liver enzymes return to normal levels when the administered dose of exisulind returns to the traditionally recommended level or when treatment is discontinued. The purpose of using combinations is to allow a lower dose of each to be used.
Series [2] concerns PKG activity in HCT116 colon cancer cells. The experiment in a line: PKG activity assay in drug-treated HCT116 cells. Format: cell-based. The source says:
To test the effect of cGMP-specific PDE inhibition on neoplasia containing the β-catenin mutation, HCT116 colon cancer cells were employed. HCT116 is known to contain the β-catenin mutation, but is known not to contain the APC mutation.
The same procedure is used to grow the HCT116 cells as is used in the SW480 procedure described above. In this experiment, only exisulind and controls were used.

Series [3] has as its system HT-29 colon adenocarcinoma cells. Put plainly: Apoptosis by DNA fragmentation assay in HT-29 cells. Further: key: −: Not active; +: Slightly active; + +: Moderately active; + + +: Strongly active; + + + +: Highly active. Format: cell-based, human. Particulars: Table 9 qualitative profile.
Series [4] relates to premalignant lesions in mouse mammary gland organ culture. Put plainly: Mammary gland organ culture model. On mammary gland organ culture: key: −: Not active; +: Slightly active; + +: Moderately active; + + +: Strongly active; + + + +: Highly active. In kind it is cell-based. An excerpt: Test compounds identified by the above methods can be tested for antineoplastic activity by their ability to inhibit the incidence of pre-neoplastic lesions in a mammary gland organ culture system. This mouse mammary gland organ culture technique has been successfully used by other investigators to study the effects of known antineoplastic agents such as certain NSAIDs, retinoids, tamoxifen, selenium, and certain natural products, and is useful for validation of the screening method of the present invention.
For example, female BALB/c mice can be treated with a combination of estradiol and progesterone daily, in order to prime the glands to be responsive to hormones in vitro. The animals are sacrificed, and thoracic mammary glands are excised aseptically and incubated for ten days in growth media supplemented with insulin, prolactin, hydrocortisone, and aldosterone. DMBA (7,12-dimethylbenz(a)anthracene) is added to medium to induce the formation of premalignant lesions. Fully developed glands are then deprived of prolactin, hydrocortisone, and aldosterone, resulting in the regression of the glands but not the pre-malignant lesions.
The test compound is dissolved in DMSO and added to the culture media for the duration of the culture period. At the end of the culture period, the glands are fixed in 10% formalin, stained with alum carmine, and mounted on glass slides. The incidence of forming mammary lesions is the ratio of the glands with mammary lesions to […]. The incidence of mammary lesions in test compound treated glands is compared with that of the untreated glands.
The extent of the area occupied by the mammary lesions can be quantitated by projecting an image of the gland onto a digitation pad. The area covered by the gland is traced on the pad and considered as 100% of the area. The space covered by each of the non-regressed structures is also outlined on the digitization pad and quantitated by the computer.
Mammary gland organ culture experiment were performed as previously described (Mehta and Moon, Cancer Research, 46: 5832-5835, 1986).

Series [5] concerns PKG activity in SW480 colon cancer cells. Put plainly: PKG activity assay in drug-treated SW480 cells. Particulars: SW480, 48 hrs, with and without added cGMP; exisulind 200-600 μM, E4021 0.1-10 μM. Format: cell-based, human. The source says: The novel PKG assay of this invention involves binding to solid phase plural amino acid sequences, each of which contain at least the cGMP-binding (cGB) domain and the phosphorylation site of phosphodiesterase type 5 (“PDE5”). That sequence is known and described in the literature below. […] One way to bind the PDE5 sequences to a solid phase is to express those sequences as a fusion protein of the PDE5 sequence and one member of an amino acid binding pair, and chemically link the other member of that amino acid binding pair to a solid phase (e.g., beads). One binding pair that can be used is glutathione S-transferase (“GST”) and glutathione (“GSH”), with the GST being expressed as a fusion protein with the PDE5 sequence described above, and the GSH bound covalently to the solid phase. In this fashion, the PDE5 sequence/GST fusion protein can be bound to a solid phase simply by passing a solution containing the fusion protein over the solid phase, as described below.
To assay a liquid sample believed to contain PKG using the PDE5-bound solid phase described above, the sample and the solid phase are mixed with phosphorylation buffer containing ^32P-γ-ATP. […]
For each control or drug cell lysate sample to be evaluated, the reaction is started by adding phosphorylation buffer containing 10 μCi ^32P-γ-ATP solution (200 μM ATP, 4.5 mM MgCl; 5 mM KH2PO4; 5 mM K2HPO4;) to each mixture. […]

Series [6] has as its target cGMP PDE purified from human colon HT-29 cultured tumor cells (Homo sapiens, UniProt O76074). The experiment in a line: cGMP PDE inhibition assay. In kind it is biochemical.

As to `CC1=C(CC(=O)O)c2cc(F)ccc2/C1=C\c1ccc(S(C)(=O)=O)cc1` [Exisulind, 5-fluoro-2-methyl-1-(p-methylsulfonylbenzylidene)-3-indenylacetic acid], the “side effects at recommended dose” value in series [1] (300-400 mg/day) is “no clinically significant side effects”. In addition, the “effect at doses higher than the recommended therapeutic levels” value in series [1] (reversible) is reported as “elevated levels of liver enzymes”. In addition, the “PKG activation relative to control” value in series [2] is “PKG activation occurred”. The Apoptosis result in series [3] is “+ +”. Also, the “inhibition of formation of premalignant lesions” value in series [4] (FIG. 17) is “effectively inhibit”. The “Mammary Gland Organ Culture” value in series [4] (Table 9 qualitative profile) is on record as “+ + +”. Further, the “PKG activity relative to control” value in series [5] is listed as “increase in a dose-dependent manner”. Besides, the “PDE Inhibition” value in series [6] (Table 9 qualitative profile) was “+ +”. For the same molecule, the inhibition (in general, the change of the read-out against control, counted positive when it falls) at 10 µM in series [6] (read-out: % Inhibition at 10 μM (cGMP PDE), 10 μM) was found to be 39%. Further, the IC50 – broadly, the concentration that inhibits the measured activity by half – in series [6] (read-out: IC50 for inhibition of cGMP PDE) is 56 µM.
